According to patent publication US7888363B2, “Viral polymerase inhibitors” (Boehringer Ingelheim International GmbH, priority 2003, dated 2011):

Target: hepatitis C virus RNA dependant polymerase (NS5B) (Hepatitis C virus genotype 1b, UniProt P26663)
Experiment: Inhibition of NS5B RNA dependent RNA polymerase activity
Assay type: biochemical
Description: A suitable assay is described in the examples.
Inhibition of NS5B RNA Dependent RNA Polymerase Activity
The compounds of the invention were tested for inhibitory activity against the hepatitis C virus RNA dependant polymerase (NS5B), according to protocol described in WO 03/010141

hepatitis C virus RNA dependant polymerase (NS5B), sequence (P26663 2420-3010): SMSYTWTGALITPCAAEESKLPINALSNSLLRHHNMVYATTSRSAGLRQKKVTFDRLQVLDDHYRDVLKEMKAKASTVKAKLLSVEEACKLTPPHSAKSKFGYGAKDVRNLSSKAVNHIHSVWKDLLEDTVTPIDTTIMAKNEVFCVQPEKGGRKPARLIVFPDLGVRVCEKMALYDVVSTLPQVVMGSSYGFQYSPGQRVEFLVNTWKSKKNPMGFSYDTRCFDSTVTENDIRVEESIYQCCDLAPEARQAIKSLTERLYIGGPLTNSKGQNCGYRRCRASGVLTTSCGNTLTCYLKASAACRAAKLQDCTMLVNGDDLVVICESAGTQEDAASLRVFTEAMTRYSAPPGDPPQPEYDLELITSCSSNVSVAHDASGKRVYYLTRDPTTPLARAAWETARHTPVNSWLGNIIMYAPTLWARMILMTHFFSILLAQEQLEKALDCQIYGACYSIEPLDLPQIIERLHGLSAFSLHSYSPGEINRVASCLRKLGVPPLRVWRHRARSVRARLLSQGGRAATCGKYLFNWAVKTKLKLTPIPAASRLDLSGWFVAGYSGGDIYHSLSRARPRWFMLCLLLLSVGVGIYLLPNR

| IC50 (Table 1, HCV NS5B polymerase) [µM] | IC50 (Table 4, class ranges) [µM] | SMILES | further results |
| --- | --- | --- | --- |
| < 0.2 |  | O=C(O)CCNC(=O)Cn1c(-c2ccoc2)c(C2CCCCC2)c2ccc(C(=O)O)cc21 [Example 1073] |  |
| < 0.2 |  | O=C(O)/C=C/c1ccc(NC(=O)[C@]2(NC(=O)Cn3c(-c4ccoc4)c(C4CCCCC4)c4ccc(C(=O)O)cc43)CCNC2)cc1 [Example 1077] |  |
|  |  | O=C(Nc1ccc(CCO)cc1)c1ccc2c(c1)c(C1CCCCC1)c(-c1ccoc1)n2CC(=O)N1CCC(N2CCCC2)CC1 [Example 7024] | IC50 (Table 7, class ranges): 1 to 10 µM |
| 0.2 to 1 |  | O=C(O)c1ccc2c(C3CCCCC3)c(-c3csc4ccccc34)n(CC(=O)N3CCC(N4CCCC4)CC3)c2c1 [Example 1048] |  |
| < 0.2 |  | CN(C)C(=O)Cn1c(-c2ccoc2)c(C2CCCCC2)c2ccc(C(=O)O)cc21 [Example 1111] |  |
|  |  | CC(=O)NC1CCN(C(=O)c2ccc3c(c2)c(C2CCCCC2)c(-c2ccoc2)n3CC(=O)N2CCC(N3CCCC3)CC2)C1 (stereo not drawn) [Example 7039] | IC50 (Table 7, class ranges): 1 to 10 µM |
|  |  | O=C(NCCN1CCNC1=O)c1ccc2c(c1)c(C1CCCCC1)c(-c1ccoc1)n2CC(=O)N1CCC(N2CCCC2)CC1 [Example 7044] | IC50 (Table 7, class ranges): 1 to 10 µM |
| < 0.2 |  | NC(=O)[C@@H]1CCCN1C(=O)Cn1c(-c2ccoc2)c(C2CCCCC2)c2ccc(C(=O)O)cc21 [Example 1057] |  |
|  |  | COC(=O)c1ccccc1S(=O)(=O)NC(=O)c1ccc2c(C3CCCCC3)c(-c3ccoc3)n(CC(=O)N3CCOCC3)c2c1 [Example 2006] | IC50 (Table 2, HCV NS5B polymerase): < 0.2 µM |
| 0.2 to 1 |  | CC(C)(C)Nc1nc(-c2c(C3CCCCC3)c3ccc(C(=O)O)cc3n2CC(=O)N2CCOCC2)cs1 [Example 1041] |  |
|  |  | Cc1ccc(S(=O)(=O)NC(=O)c2ccc3c(C4CCCCC4)c(-c4ccoc4)n(CC(=O)N4CCOCC4)c3c2)cc1 [Example 2022] | IC50 (Table 2, HCV NS5B polymerase): < 0.2 µM |
| < 0.2 |  | CC(C)N1CCN(C(=O)Cn2c(-c3ccoc3)c(C3CCCCC3)c3ccc(C(=O)O)cc32)CC1 [Example 1125] |  |
| < 0.2 |  | O=C(O)CNC(=O)Cn1c(-c2ccoc2)c(C2CCCCC2)c2ccc(C(=O)O)cc21 [Example 1067] |  |
|  |  | O=C(O)c1ccc2c(c1)c(C1CCCCC1)c(-c1ccoc1)n2CC(=O)N1CCOCC1 [Example 6001] | IC50 (Table 6, HCV NS5B polymerase): 0.2 to 1 µM |
|  | < 0.2 | CNC(=O)C1(NC(=O)c2ccc3c(C4CCCCC4)c(-c4ccoc4)n(CC(=O)N4CCOCC4)c3c2)CCCC1 [Example 4096] |  |
|  | 0.2 to 1 | O=C(NC1(C(=O)O)CCCC1)c1ccc2c(C3CCCCC3)c(-c3ccoc3)n(CC(=O)N3CCOCC3)c2c1 [Example 4074] |  |
| 0.2 to 1 |  | O=C(O)c1ccc2c(C3CCCC3)c(-c3ccccn3)n(CC(=O)N3CCCCC3)c2c1 [Example 1087] |  |
|  | 0.2 to 1 | CNC(=O)C1(NC(=O)c2ccc3c(C4CCCCC4)c(-c4ccoc4)n(CC(=O)N4CCOCC4)c3c2)CCC1 [Example 4091] |  |
|  |  | CN(C)C(=O)CCn1c(-c2ccoc2)c(C2CCCCC2)c2ccc(C(=O)O)cc21 [Example 5003] | IC50 (Table 5, HCV NS5B polymerase): 1 to 10 µM |
| < 0.2 |  | O=C(O)CNNC(=O)Cn1c(-c2ccoc2)c(C2CCCCC2)c2ccc(C(=O)O)cc21 [Example 1068] |  |
|  |  | O=C(NC(Cc1ccccc1)c1ccccc1)c1ccc2c(c1)c(C1CCCCC1)c(-c1ccoc1)n2CC(=O)N1CCC(N2CCCC2)CC1 (stereo not drawn) [Example 7025] | IC50 (Table 7, class ranges): 1 to 10 µM |
|  | < 0.2 | NC(=O)C1(NC(=O)c2ccc3c(C4CCCCC4)c(-c4ccoc4)n(CC(=O)N4CCOCC4)c3c2)COCOC1 [Example 4085] |  |

| IC50 (Table 1, HCV NS5B polymerase) [µM] | IC50 (Table 4, class ranges) [µM] | SMILES | further results |
| --- | --- | --- | --- |
|  | < 0.2 | NC(=O)C1(NC(=O)c2ccc3c(C4CCCCC4)c(-c4ccoc4)n(CC(=O)N4CCOCC4)c3c2)CCCC1 [Example 4072] |  |
|  |  | COC(=O)c1cc2c(cc1O)c(C1CCCCC1)c(-c1ccoc1)n2CC(=O)N1CCC(N2CCCC2)CC1 [Example 7010] | IC50 (Table 7, class ranges): 1 to 10 µM |
| 1 to 10 |  | COc1ccc(CNC(=O)Cn2c(-c3ccoc3)c(C3CCCCC3)c3ccc(C(=O)O)cc32)cc1 [Example 1064] |  |
|  |  | O=C(NS(=O)(=O)c1cc(F)ccc1F)c1ccc2c(C3CCCCC3)c(-c3ccoc3)n(CC(=O)N3CCOCC3)c2c1 [Example 2014] | IC50 (Table 2, HCV NS5B polymerase): < 0.2 µM |
|  | 1 to 10 | CN1CCN(C(=O)Cn2c(-c3ccccn3)c(C3CCCCC3)c3ccc(C(N)=O)cc32)CC1 [Example 4001] |  |
|  |  | O=C(O)COc1cc2c(C3CCCCC3)c(-c3ccoc3)n(CC(=O)N3CCOCC3)c2cc1C(=O)O [Example 7011] | IC50 (Table 7, class ranges): 1 to 10 µM |
|  |  | COc1cc2c(C3CCCCC3)c(-c3ccoc3)n(CC(=O)N3CCC(N4CCCC4)CC3)c2cc1C(=O)O [Example 7003] | IC50 (Table 7, class ranges): 0.2 to 1 µM |
|  |  | CC(C(=O)N1CCOCC1)n1c(-c2ccoc2)c(C2CCCCC2)c2ccc(C(=O)O)cc21 (stereo not drawn) [Example 5008] | IC50 (Table 5, HCV NS5B polymerase): 1 to 10 µM |
| < 0.2 |  | CN(C)C(=O)Cn1c(-c2ccccc2)c(C2CCCCC2)c2ccc(C(=O)O)cc21 [Example 1025] |  |
| < 0.2 |  | O=C(O)c1ccc2c(C3CCCCC3)c(-c3ccoc3)n(CC(=O)N3CCC[C@H]3C(=O)O)c2c1 [Example 1066] |  |
|  | 1 to 10 | CN1CCN(C(=O)Cn2c(-c3ccoc3)c(C3CCCCC3)c3ccc(C(=O)NC(C)(C)Cc4ccccc4)cc32)CC1 [Example 4037] |  |
| < 0.2 |  | CCN1CCN(C(=O)Cn2c(-c3ccoc3)c(C3CCCCC3)c3ccc(C(=O)O)cc32)CC1 [Example 1120] |  |
|  | < 0.2 | CS(=O)(=O)NC(=O)c1ccc2c(C3CCCCC3)c(-c3ccoc3)n(CC(=O)N3CCC(N4CCCC4)CC3)c2c1 [Example 4109] |  |
|  | 0.2 to 1 | Cc1cnc(CNC(=O)c2ccc3c(C4CCCCC4)c(-c4ccoc4)n(CC(=O)N4CCN(C)CC4)c3c2)cn1 [Example 4044] |  |
|  |  | O=C(NCCc1c[nH]cn1)c1ccc2c(c1)c(C1CCCCC1)c(-c1ccoc1)n2CC(=O)N1CCC(N2CCCC2)CC1 [Example 7015] | IC50 (Table 7, class ranges): 1 to 10 µM |
| 0.2 to 1 |  | O=C(Cn1c(-c2ccoc2)c(C2CCCCC2)c2ccc(C(=O)O)cc21)NC1CCCCC1 [Example 1088] |  |
|  |  | O=C(NCc1ccccn1)c1ccc2c(c1)c(C1CCCCC1)c(-c1ccoc1)n2CC(=O)N1CCC(N2CCCC2)CC1 [Example 7019] | IC50 (Table 7, class ranges): 1 to 10 µM |
|  | < 0.2 | N#CC1(NC(=O)c2ccc3c(C4CCCCC4)c(-c4ccoc4)n(CC(=O)N4CCC(N5CCCC5)CC4)c3c2)CCC1 [Example 4090] |  |
| 0.2 to 1 |  | O=C(Cn1c(-c2ccoc2)c(C2CCCCC2)c2ccc(C(=O)O)cc21)NCC1CCCO1 (stereo not drawn) [Example 1113] |  |
|  |  | O=C(NS(=O)(=O)c1cccc2cnccc12)c1ccc2c(C3CCCCC3)c(-c3ccoc3)n(CC(=O)N3CCOCC3)c2c1 [Example 2039] | IC50 (Table 2, HCV NS5B polymerase): < 0.2 µM |
|  |  | O=C(NS(=O)(=O)c1cccc(Cl)c1)c1ccc2c(C3CCCCC3)c(-c3ccoc3)n(CC(=O)N3CCOCC3)c2c1 [Example 2010] | IC50 (Table 2, HCV NS5B polymerase): < 0.2 µM |
|  | < 0.2 | CN(C)C(=O)C(C)(C)NC(=O)c1ccc2c(C3CCCCC3)c(-c3ccoc3)n(CC(=O)N3CCC(N4CCCC4)CC3)c2c1 [Example 4086] |  |

| IC50 (Table 1, HCV NS5B polymerase) [µM] | IC50 (Table 4, class ranges) [µM] | SMILES | further results |
| --- | --- | --- | --- |
| 0.2 to 1 |  | CCCN(CCC)C(=O)Cn1c(-c2ccoc2)c(C2CCCCC2)c2ccc(C(=O)O)cc21 [Example 1011] |  |
|  | < 0.2 | CC(C)(NC(=O)c1ccc2c(C3CCCCC3)c(-c3ccoc3)n(CC(=O)N3CCC(N4CCCC4)CC3)c2c1)C(N)=O [Example 4081] |  |
|  |  | O=C(NS(=O)(=O)c1ccc(OC(F)(F)F)cc1)c1ccc2c(C3CCCCC3)c(-c3ccoc3)n(CC(=O)N3CCOCC3)c2c1 [Example 2013] | IC50 (Table 2, HCV NS5B polymerase): < 0.2 µM |
|  |  | C=C(C)Cn1c(-c2ccoc2)c(C2CCCCC2)c2ccc(C(=O)O)cc21 [Example 5007] | IC50 (Table 5, HCV NS5B polymerase): 0.2 to 1 µM |
|  | 0.2 to 1 | CCOC(=O)c1nc(C2(NC(=O)c3ccc4c(C5CCCCC5)c(-c5ccoc5)n(CC(=O)N5CCC(N6CCCC6)CC5)c4c3)CCC2)cs1 [Example 4108] |  |
| < 0.2 |  | O=C(Cn1c(-c2ccoc2)c(C2CCCCC2)c2ccc(C(=O)O)cc21)N[C@@H](Cc1ccc(O)cc1)C(=O)O [Example 1055] |  |
|  | 0.2 to 1 | COC(=O)C1(NC(=O)c2ccc3c(C4CCCCC4)c(-c4ccoc4)n(CC(=O)N4CCOCC4)c3c2)COCOC1 [Example 4080] |  |
|  | 0.2 to 1 | CN1CCN(C(=O)Cn2c(-c3ccoc3)c(C3CCCCC3)c3ccc(C(=O)NCC4CC4)cc32)CC1 [Example 4034] |  |
|  |  | O=C(NS(=O)(=O)c1ccc(Cl)cc1)c1ccc2c(C3CCCCC3)c(-c3ccoc3)n(CC(=O)N3CCOCC3)c2c1 [Example 2019] | IC50 (Table 2, HCV NS5B polymerase): < 0.2 µM |
| < 0.2 |  | CN(C)C(=O)CN(C)C(=O)Cn1c(-c2ccoc2)c(C2CCCCC2)c2ccc(C(=O)O)cc21 [Example 1121] |  |
|  | 0.2 to 1 | C#CC1(NC(=O)c2ccc3c(C4CCCCC4)c(-c4ccoc4)n(CC(=O)N4CCOCC4)c3c2)CCCCC1 [Example 4071] |  |
|  | < 0.2 | CC(C)(NC(=O)c1ccc2c(C3CCCCC3)c(-c3ccoc3)n(CC(=O)N3CCOCC3)c2c1)C(N)=O [Example 4077] |  |
| 0.2 to 1 |  | O=C(O)CN(Cc1ccccc1)C(=O)Cn1c(-c2ccoc2)c(C2CCCCC2)c2ccc(C(=O)O)cc21 [Example 1109] |  |
|  |  | O=C(NCCN1CCCC1)c1ccc2c(c1)c(C1CCCCC1)c(-c1ccoc1)n2CC(=O)N1CCC(N2CCCC2)CC1 [Example 7014] | IC50 (Table 7, class ranges): 1 to 10 µM |
| 0.2 to 1 |  | COCCN(C)C(=O)Cn1c(-c2ccoc2)c(C2CCCCC2)c2ccc(C(=O)O)cc21 [Example 1124] |  |
| 0.2 to 1 |  | CC(C)NC(=O)Cn1c(-c2ccoc2)c(C2CCCCC2)c2ccc(C(=O)O)cc21 [Example 1106] |  |
|  | < 0.2 | Cc1c(C2(NC(=O)c3ccc4c(C5CCCCC5)c(-c5ccoc5)n(CC(=O)N5CCOCC5)c4c3)CCC2)oc2ccc(C(=O)O)cc12 [Example 4088] |  |
| < 0.2 |  | CCC(NC(=O)Cn1c(-c2ccoc2)c(C2CCCCC2)c2ccc(C(=O)O)cc21)C(=O)O (stereo not drawn) [Example 1119] |  |
| < 0.2 |  | CN1CCN(C(=O)Cn2c(-c3ccccn3)c(C3CCCCC3)c3ccc(C(=O)O)cc32)CC1 [Example 1082] |  |
|  | 1 to 10 | CN1CCN(C(=O)Cn2c(-c3ccoc3)c(C3CCCCC3)c3ccc(C(=O)NC4CCS(=O)(=O)C4)cc32)CC1 (stereo not drawn) [Example 4033] |  |
|  | 0.2 to 1 | CN1CCN(C(=O)Cn2c(-c3ccoc3)c(C3CCCCC3)c3ccc(C(=O)NCc4ccc5c(c4)OCO5)cc32)CC1 [Example 4013] |  |
|  |  | C/C=C/Cn1c(-c2ccoc2)c(C2CCCCC2)c2ccc(C(=O)O)cc21 [Example 5005] | IC50 (Table 5, HCV NS5B polymerase): 1 to 10 µM |
